Data on two compounds can be found in article PMC8329300, “X-ray crystallography reveals molecular recognition mechanism for sugar binding in a melibiose transporter MelB” (Communications Biology, 2021).

One assay has as its target T1, MelBSt D59A (Salmonella typhimurium, UniProt P30878, D59A).
T1 construct: Cys scanning mutagenesis for the full-length MelBSt; expressed in transfected cells; host or cells: E. coli DW2 (melA+, melB-, lacZ-Y-)
Briefly: [3H]Melibiose transport time course with DW2 intact cells expressing MelBSt D59A. It counts as cell-based. Particulars: 0.4 mM [3H]melibiose. As to the method: Fig. 1 Functional characterizations. a [^3H] Melibiose transport time course with intact cells. E. coli DW2 strain (melB^−, lacZ^−Y^−) expressed with the WT, D59C, or D59A MelBSt mutants were subjected to [^3H]melibiose active transport assay at 0.4 mM and 10 mCi/mmol in the presence of 20 mM or 100 mM NaCl or LiCl by a fast filtration method. Inset, melibiose fermentation assay. Transformants with DW2 strain were plated on MacConkey agar plates containing 30 mM melibiose as the sole carbohydrate source and pH sensor neutral red, and incubated at 37 °C for 16–18 h before imaging. Number of tests = 3, from different batch of cells or duplicate measurements from same batch of sample. b Ligand binding by Trp→dansyl galactoside (D^2G) FRET assay. Purified proteins at 1 μM concentration in 20 mM Tris-HCl, pH 7.5, 100 mM CholCl, 10% glycerol, and 0.03% UDM were subjected to steady-state fluorescence measurements as described in Methods. On the time-trace, 1.8 μL of 1 mM D^2G at 10 μM was added into 180 μL of protein solutions at 1-min point, followed by supplying 10 μL of 5 mM DDMB or 5 mM α-NPG to displace the bound D^2G. For testing Na^+ or Li^+ binding, they are added into the solution before displacement with the second sugar. The structure of DDMB or α-NPG is shown in a chair form, and the carbon positions are labeled. Glycosidic bonds are indicated by arrows. Both are α-galactosides containing a substituent at the anomeric carbon-1. The data were from duplicate measurements.
The overexpression of MelBSt was carried out in the E. coli DW2 strain (melA^+, melB^−, and lacZ^−Y^−) from a constitutive expression plasmid pK95ΔAH/MelBSt/CHis10[9],[28],[33]. The D59C or D59A mutant with Cys or Ala at the position 59, respectively, was constructed previously[9] or in this study by QuikChange Site-Directed Mutagenesis kit and confirmed by DNA sequencing analysis. E. coli DW2 cells containing a given plasmid were grown in Luria-Bertani (LB) broth (5 g yeast extract and 10 g tryptone per liter with 171 mM NaCl) with 100 mg/L of ampicillin in a 37 °C shaker. The overnight cultures were diluted by 5% with LB broth supplemented with 0.5% glycerol and 100 mg/L of ampicillin, and constitutive overexpression was obtained by shaking at 30 °C for another 5 h.
E. coli DW2 cells expressing MelBSt were washed with 100 mM KPi, pH 7.5, to remove Na^+ contamination as described previously. The cell pellets were resuspended with the assay buffer (100 mM KPi, pH 7.5, 10 mM MgSO4) and adjusted to A420 of 10 (∼0.7 mg protein/ml). Using a fast filtration, transport time course at 0.4 mM melibiose (at specific activity of 10 mCi/mmol) was carried out in the absence or presence of NaCl or LiCl at 20 mM or 100 mM, respectively, and intracellular melibiose was determined as described previously.

Another assay has as its target T2, WT MelBSt (Salmonella typhimurium, UniProt P30878).
T2 construct: Cys scanning mutagenesis for the full-length MelBSt; His10 (C); made in house; host or cells: E. coli DW2
As to the kind of experiment: biochemical. In kind it is binding. Particulars: for Kd: Kd of substrate binding, α-NPG, ITC 25 °C. How it is done: All ITC ligand-binding assays were performed with the TA Instruments (Nano-ITC device) at 25 °C. In a typical experiment, the titrand (MelBSt) in the ITC sample cell was titrated with the specified titrant (placed in the Syringe) by an incremental injection of 2-µL aliquots at an interval of 300 s at a constant stirring rate of 250 r.p.m. All samples were degassed using a TA Instruments Degassing Station (model 6326) for 15 min prior to the titration. Data processing was performed with the NanoAnalyze (version 3.6.0 software) provided with the ITC equipment. The normalized heat changes were subtracted from the heat of dilution elicited by last few injections, where no further binding occurred; the corrected heat changes were plotted against the molar ratio of titrant versus titrand. The values for association constant (Ka) value were determined by fitting the data with a one-site independent-binding model. At most cases, the binding stoichiometry (N) number was fixed to 1 since it is a known parameter, which can restrain the data fitting and achieve more accurate results. The dissociation constant Kd = 1/Ka.
Supplementary Figure 1. ITC measurements. ITC measurements were performed at 25 °C as described in Methods. (a) Binding thermography. For all tests, ligands and proteins are buffer- […]
(1 picture or pasted object on this page, not shown here) […]
matched. For melibiose binding measurements, a solution of 80 mM or 10 mM in the absence or presence of NaCl at 100 mM, was injected into the ITC sample cell containing the WT MelBSt at 80 μM without or with 100 mM NaCl, respectively. With the D59C mutant, […] was used. For α-NPG binding measurements, 0.5 mM or 0.4 mM solution was used to titrate the WT or D59C mutant at 50 μM in the absence or presence or 100 mM NaCl, respectively. For the Na+ or Li+ binding measurements, 5 mM or 2 mM solution was used to titrate WT MelBSt at 80 μM without or with 50 mM melibiose, respectively; 40 mM solutions was used to titrate the D59C mutant. (b) binding isotherm. Curve fit was carried out with a one-site independent-binding model included in the NanoAnalyze software (version 3.6.0).

T1 sequence (P30878 whole entry D59A): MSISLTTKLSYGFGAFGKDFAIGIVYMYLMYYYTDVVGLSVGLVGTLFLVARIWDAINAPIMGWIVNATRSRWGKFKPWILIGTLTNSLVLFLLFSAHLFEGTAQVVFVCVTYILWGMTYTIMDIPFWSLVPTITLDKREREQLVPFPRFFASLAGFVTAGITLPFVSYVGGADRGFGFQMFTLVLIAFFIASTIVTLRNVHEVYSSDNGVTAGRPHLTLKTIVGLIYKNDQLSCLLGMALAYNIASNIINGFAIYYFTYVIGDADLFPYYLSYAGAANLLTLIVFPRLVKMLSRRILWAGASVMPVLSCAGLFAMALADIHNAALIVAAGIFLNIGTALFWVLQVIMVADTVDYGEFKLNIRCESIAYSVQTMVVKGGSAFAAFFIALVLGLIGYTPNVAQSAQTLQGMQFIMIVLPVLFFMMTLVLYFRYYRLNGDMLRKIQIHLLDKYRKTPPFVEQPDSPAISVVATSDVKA
T2 sequence (P30878 whole entry): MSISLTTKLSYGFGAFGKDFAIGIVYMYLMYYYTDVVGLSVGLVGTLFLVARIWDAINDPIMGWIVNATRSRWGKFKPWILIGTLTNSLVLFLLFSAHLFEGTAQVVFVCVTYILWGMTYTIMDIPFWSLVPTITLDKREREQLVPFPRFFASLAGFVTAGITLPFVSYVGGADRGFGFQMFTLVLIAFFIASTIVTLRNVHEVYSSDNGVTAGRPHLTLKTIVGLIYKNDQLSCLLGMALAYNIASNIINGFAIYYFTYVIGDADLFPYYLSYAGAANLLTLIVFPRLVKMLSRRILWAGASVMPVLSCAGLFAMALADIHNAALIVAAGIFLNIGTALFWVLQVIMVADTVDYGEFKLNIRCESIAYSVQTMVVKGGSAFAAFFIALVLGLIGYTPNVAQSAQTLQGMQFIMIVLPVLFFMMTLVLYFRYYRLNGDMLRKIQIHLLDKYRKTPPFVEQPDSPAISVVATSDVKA

Turning to `OC[C@H]1O[C@H](OCC2O[C@@H](O)[C@H](O)[C@@H](O)[C@@H]2O)[C@H](O)[C@@H](O)[C@H]1O` (some centres unmarked) [Melibiose], the Melibiose transport is listed as 9.09 on MelBSt D59A (H+, Time 0.17); 8.49 at MelBSt D59A (H+, Time 0.50); 2.84 on MelBSt D59A (H+, Time 1.00); 1.86 at MelBSt D59A (H+, Time 2.00); 1.70 on MelBSt D59A (H+, Time 5.00); 1.53 at MelBSt D59A (H+, Time 10.00). For the same compound, the Melibiose transport amounted to 1.58 on MelBSt D59A (H+, Time 30.00); 0.82 at MelBSt D59A (Li+, 20 mM, Time 0.17); 1.81 at MelBSt D59A (Li+, 20 mM, Time 0.50); 0.66 at MelBSt D59A (Li+, 20 mM, Time 1.00); 4.29 on MelBSt D59A (Li+, 20 mM, Time 2.00); 3.59 at MelBSt D59A (Li+, 20 mM, Time 5.00). Besides, the Melibiose transport worked out at 1.72 on MelBSt D59A (Li+, 20 mM, Time 10.00); 4.17 at MelBSt D59A (Li+, 20 mM, Time 30.00); 4.09 at MelBSt D59A (Na+, 20 mM, Time 0.17); 2.70 on MelBSt D59A (Na+, 20 mM, Time 0.50); 2.54 at MelBSt D59A (Na+, 20 mM, Time 1.00); 5.43 at MelBSt D59A (Na+, 20 mM, Time 2.00). Also, the Melibiose transport on MelBSt D59A (Na+, 20 mM, Time 5.00) was determined as 1.63; on MelBSt D59A (Na+, 20 mM, Time 10.00), 1.16.
For `O=[N+]([O-])c1ccc(OC2OC(CO)C(O)C(O)C2O)cc1` [α-NPG, 4-nitrophenyl-α-D-galactopyranoside], the Kd (commonly the concentration at which binding is half-saturated) stood at 43.2 ± 0.62 µM at WT MelBSt (Apo) and 25.7 ± 4.42 µM on WT MelBSt (Na+ (100 mM)). For the same compound, the “greater affinity compared to the native substrate melibiose” value on WT MelBSt (from Table 1) was 100 fold.
